According to patent US8415469B2, “Compounds and methods for kinase modulation, and indications therefor” (Plexxikon Inc., priority 2005, dated 2013):

How the values were obtained:
Format in all cases: biochemical
Abl = molecular target: T1, Abl (Homo sapiens, UniProt P00519); assay: AlphaScreen kinase assay, Abl; settings: read-out: activity toward kinase Abl, IC50
T1 construct: P1121. pET-SPEC BI-PTP Abl G227-V515-X; His6 (N); made in house; host or cells: E. coli (PTP1B co-expressed)
T1 sequence (P00519 with tags, fused parts or gaps): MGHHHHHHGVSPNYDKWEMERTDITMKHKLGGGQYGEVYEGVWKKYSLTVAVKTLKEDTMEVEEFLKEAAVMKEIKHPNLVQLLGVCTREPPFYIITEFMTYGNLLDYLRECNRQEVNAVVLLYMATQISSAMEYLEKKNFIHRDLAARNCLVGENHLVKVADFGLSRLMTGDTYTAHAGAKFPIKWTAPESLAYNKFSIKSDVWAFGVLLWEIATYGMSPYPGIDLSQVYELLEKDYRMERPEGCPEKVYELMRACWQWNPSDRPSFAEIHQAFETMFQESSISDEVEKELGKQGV
Summary of the method: (§1)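 Stock 20 mM compound in DMSO, diluted 1:3 serially to 8 final concentrations. Kinase phosphorylates biotinylated peptide; donor (streptavidin) and acceptor (anti-phospho antibody) beads then associate. Reduced acceptor emission indicates inhibition.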

B-Raf = molecular target: T2, B-Raf (Homo sapiens, UniProt P15056); assay: AlphaScreen kinase assay, B-Raf; settings: read-out: IC50, activity toward kinase B-Raf
T2 construct: purchased Upstate Biotechnology

B-Raf V600E = molecular target: T3, B-Raf V600E (Homo sapiens, UniProt P15056, V600E); assay: AlphaScreen kinase assay, B-Raf V600E; settings: read-out: IC50, activity toward kinase B-Raf V600E
T3 construct: P4254. pFastBacBD-CDC37 BRAF D437-K722-X, V600E; His6 with pFastBac HT leader (TEV site) (N); made in house; host or cells: Sf9 (baculovirus; chaperone CDC37 co-expressed)

Btk = molecular target: T4, Btk (Homo sapiens, UniProt Q06187); assay: Z'-Lyte FRET kinase assay (Invitrogen), Btk; settings: read-out: IC50, activity toward kinase Btk
T4 construct: purchased Invitrogen (assay run by Invitrogen)
Source text: (§2) For example, direct radiometric, indirect FRET or AlphaScreen assays may be used to assess the level of phosphorylation of a substrate in the presence of test compounds in order to determine the inhibitory affect of the compound on the kinase. […] For these assays, compounds of the invention were screened by Invitrogen using Z′-Lyte™ kinase assay.
(§3) Briefly, the Invitrogen kinase assay involves use of a specific peptide substrate optimized for each kinase, containing a fluorophore at each end that make up the FRET pair. The peptide sensitivity to proteolytic cleavage depends on phosphorylation of the peptide. Non-phosphorylated peptide is cleaved by a protease while peptide phosphorylated by the kinase is not cleaved. Cleavage of the peptide disrupts the FRET between the donor (coumarin) and acceptor (fluorescein) fluorophores, resulting in an increase in the ratio of donor emission to acceptor emission. The emission ratio of coumarin to fluorescein is used to assess the reaction progress. […] Thus, the assay involves a kinase reaction in the presence of varying concentrations of a given compound, a development reaction with site specific protease, and detection of the fluorescent emission ratio of coumarin and fluorscein. […] Reaction conditions for each kinase are determined to provide optimal reaction times, incubation temperature, kinase and ATP concentrations. Test samples are made up in 1× kinase buffer (50 mM HEPES pH 7.5, 50 mM MgCl2, 5 mM EGTA, 0.05% BRIJ-35) and compound at desired concentration prepared in DMSO such that the final DMSO is 1%. […] All kinase except for MAP2K1 were at 10 μM ATP in the kinase reaction, while MAP2K1 was at 100 μM. Samples are mixed and the kinase reaction is incubated 1 hour at room temperature, after which 5 μl of development solution is added and mixed. After incubation for another 1 hour at room temperature, 5 μl of stop reagent is added to each sample and mixed. The fluorescence signals are measured to determine the emission ratio.

Fak = molecular target: T5, Fak (Homo sapiens, UniProt Q05397); assay: AlphaScreen kinase assay, Fak; settings: read-out: IC50, activity toward kinase Fak
T5 construct: P1358.pFastBacHtb FAK S411-Q686-X; His6 with pFastBacHTb leader (TEV site) (N); made in house; host or cells: Sf9 (baculovirus)

FGFR1 = molecular target: T6, FGFR1 (Homo sapiens, UniProt P11362, C488A/C584S); assay: AlphaScreen kinase assay, FGFR1; settings: read-out: IC50, activity toward kinase FGFR
T6 construct: P1351.pET N6 BI-PTP FGFR A458-E765-X C488A, C584S; made in house; host or cells: E. coli (PTP1B co-expressed)

Flt1 = molecular target: T7, Flt1 (Homo sapiens, UniProt P17948); assay: AlphaScreen kinase assay, Flt1; settings: read-out: IC50, activity toward kinase Flt1
T7 construct: P1826.pETN6 BI-PTP FLT1 M799-D1165-X WT; His6 (N); made in house; host or cells: E. coli (PTP1B co-expressed)
T7 sequence (P17948 with tags, fused parts or gaps): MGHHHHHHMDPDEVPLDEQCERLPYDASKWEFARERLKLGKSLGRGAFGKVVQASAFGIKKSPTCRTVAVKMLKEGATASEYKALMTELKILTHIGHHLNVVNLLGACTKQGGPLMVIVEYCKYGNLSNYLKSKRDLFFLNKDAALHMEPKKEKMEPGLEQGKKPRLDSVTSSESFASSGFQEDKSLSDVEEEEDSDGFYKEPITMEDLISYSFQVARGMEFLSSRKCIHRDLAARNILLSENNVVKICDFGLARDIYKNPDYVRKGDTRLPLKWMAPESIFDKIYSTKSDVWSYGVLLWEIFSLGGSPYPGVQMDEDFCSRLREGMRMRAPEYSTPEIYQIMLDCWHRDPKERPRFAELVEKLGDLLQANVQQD

Fms = molecular target: T8, Fms (Homo sapiens, UniProt P07333); assay: AlphaScreen kinase assay, Fms; settings: read-out: IC50, activity toward kinase Fms
T8 construct: purchased Upstate Biotechnology

Jnk1 = molecular target: T9, Jnk1 (Homo sapiens, UniProt P45983); assay: AlphaScreen kinase assay, Jnk1; settings: read-out: IC50, activity toward kinase Jnk1
T9 construct: purchased Upstate Biotechnology

Jnk2 = molecular target: T10, Jnk2 (Homo sapiens, UniProt P45984); assay: AlphaScreen kinase assay, Jnk2; settings: read-out: IC50, activity toward kinase Jnk2
T10 construct: purchased Roche Protein Expression Group (Indianapolis, IN)
Summary of the method: as §1

Jnk3 = molecular target: T11, Jnk3 (Homo sapiens, UniProt P53779); assay: AlphaScreen kinase assay, Jnk3; settings: read-out: IC50, activity toward kinase Jnk3
T11 construct: purchased Upstate Biotechnology

Kdr = molecular target: T12, Kdr (Homo sapiens, UniProt P35968); assay: Z'-Lyte FRET kinase assay (Invitrogen), Kdr; settings: read-out: IC50, activity toward kinase Kdr
T12 construct: purchased Invitrogen (assay run by Invitrogen)

Kit = molecular target: T13, Kit (Homo sapiens, UniProt P10721); assay: AlphaScreen kinase assay, Kit; settings: read-out: IC50, activity toward kinase Kit
T13 construct: P1332.N6 BI PTP KIT M552-K948-X COD; His6 (N); made in house; host or cells: E. coli (PTP1B co-expressed)

Met = molecular target: T14, Met (Homo sapiens, UniProt P08581); assay: AlphaScreen kinase assay, Met; settings: read-out: IC50, activity toward kinase Met
T14 construct: P1818.pETN6 BI-PTP MET G1056-G1364-X WT; His6 (N); made in house; host or cells: E. coli (PTP1B co-expressed)
Summary of the method: as §1

Ret = molecular target: T15, Ret (Homo sapiens, UniProt P07949); assay: AlphaScreen kinase assay, Ret; settings: read-out: IC50, activity toward kinase Ret
T15 construct: P1378.pET-SF BI-PTP RET H661-R1012 HIS; made in house
T15 sequence (P07949 with tags, fused parts or gaps): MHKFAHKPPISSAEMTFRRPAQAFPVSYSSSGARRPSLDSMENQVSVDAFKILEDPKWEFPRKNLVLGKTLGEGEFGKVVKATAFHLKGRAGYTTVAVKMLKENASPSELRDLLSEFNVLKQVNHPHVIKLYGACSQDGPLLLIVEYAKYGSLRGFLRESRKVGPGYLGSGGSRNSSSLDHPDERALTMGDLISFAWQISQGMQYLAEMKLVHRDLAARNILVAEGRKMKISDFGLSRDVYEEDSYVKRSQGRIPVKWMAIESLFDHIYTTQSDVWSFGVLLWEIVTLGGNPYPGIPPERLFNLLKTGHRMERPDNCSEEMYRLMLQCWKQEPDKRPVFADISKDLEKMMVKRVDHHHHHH

Stk6 = molecular target: T16, Stk6 (Homo sapiens, UniProt O14965); assay: Z'-Lyte FRET kinase assay (Invitrogen), Stk6; settings: read-out: IC50, activity toward kinase Stk6
T16 construct: purchased Invitrogen (Carlsbad, Calif.), screening service
T16 sequence (O14965 1-403): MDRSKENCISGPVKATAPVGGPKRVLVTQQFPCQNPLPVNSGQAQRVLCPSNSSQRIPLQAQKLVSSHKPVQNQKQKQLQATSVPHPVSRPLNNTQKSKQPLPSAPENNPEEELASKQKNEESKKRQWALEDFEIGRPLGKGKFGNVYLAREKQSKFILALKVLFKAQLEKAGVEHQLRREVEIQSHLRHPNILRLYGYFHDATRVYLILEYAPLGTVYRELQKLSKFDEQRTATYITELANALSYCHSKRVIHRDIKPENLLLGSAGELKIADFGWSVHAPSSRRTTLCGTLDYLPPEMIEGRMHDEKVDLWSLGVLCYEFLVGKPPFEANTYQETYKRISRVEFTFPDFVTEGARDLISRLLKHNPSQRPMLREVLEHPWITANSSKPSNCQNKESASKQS
Source text: as §2, §3

Syk = Syk (Homo sapiens, UniProt P43405); assay: AlphaScreen kinase assay, Syk; settings: read-out: IC50, activity toward kinase Syk
Source text: AlphaScreen assay was used to screen additional kinases. The assay is similarly dependent on the phosphorylation of a peptide substrate. In this assay, an antibody that recognizes phosphorylated substrate is bound to an acceptor bead. The peptide substrate is attached to biotin, which binds to a donor head that contains streptavidin. Thus phosphorylated substrate is bound by antibody and streptavidin, bringing the donor and acceptor heads into close proximity when kinase is not inhibited. The donor produces singlet oxygen which results in emission from the acceptor when they are in close proximity. Conversely, when kinase is inhibited, the donor and acceptor beads are not associated and the emission from the acceptor is reduced.
AlphaScreen assays were done using compounds dissolved in DMSO to a concentration of 20 mM. The compounds were diluted accordingly to the desired final concentrations in each sample well, using 1:3 serial dilution for a total of 8 concentration points.

MAPKAPK2 = molecular target: T17, MAPKAPK2 (Homo sapiens, UniProt P49137); assay: Z'-Lyte FRET kinase assay (Invitrogen), MAPKAPK2; settings: read-out: IC50, activity toward kinase MAPKAPK2
T17 construct: purchased Invitrogen (assay run by Invitrogen)
Source text: The effect of potential modulators of kinase activity can be measured in a variety of different assays known in the art. For example, direct radiometric, indirect FRET or AlphaScreen assays may be used to assess the level of phosphorylation of a substrate in the presence of test compounds in order to determine the inhibitory affect of the compound on the kinase. Invitrogen (Carlsbad, Calif.) uses a FRET based assay for Btk, EGFR, EphB2, Flt3, lrak4, Kdr, MAP2K1, MAPKAPK2, PDGFRB, PKC theta, Stk6 and Yes. For these assays, compounds of the invention were screened by Invitrogen using Z′-Lyte™ kinase assay.
Briefly, the Invitrogen kinase assay involves use of a specific peptide substrate optimized for each kinase, containing a fluorophore at each end that make up the FRET pair. The peptide sensitivity to proteolytic cleavage depends on phosphorylation of the peptide. Non-phosphorylated peptide is cleaved by a protease while peptide phosphorylated by the kinase is not cleaved. Cleavage of the peptide disrupts the FRET between the donor (coumarin) and acceptor (fluorescein) fluorophores, resulting in an increase in the ratio of donor emission to acceptor emission. The emission ratio of coumarin to fluorescein is used to assess the reaction progress. The extent of phosphorylation is determined from the emission ratio, which is low when the kinase is active (phosphorylated peptide is not cleaved, FRET pair connected) or higher for inhibited kinase (non-phosphorylated peptide is cleaved, FRET pair separated). Thus, the assay involves a kinase reaction in the presence of varying concentrations of a given compound, a development reaction with site specific protease, and detection of the fluorescent emission ratio of coumarin and fluorscein. […] Reaction conditions for each kinase are determined to provide optimal reaction times, incubation temperature, kinase and ATP concentrations. Test samples are made up in 1× kinase buffer (50 mM HEPES pH 7.5, 50 mM MgCl2, 5 mM EGTA, 0.05% BRIJ-35) and compound at desired concentration prepared in DMSO such that the final DMSO is 1%. […] Typically, assay plates are prepared to 10 μl final volume per sample, adding 2.5 μl of compound at 4× the desired concentration in 4% DMSO (serial dilution of compound provides concentration curve), 5 μl of the desired kinase mixed with Z′-LYTE™ peptide substrate (2× in 2× kinase buffer, final peptide at 2 μM), and 2.5 μl of 4×ATP solution. All kinase except for MAP2K1 were at 10 μM ATP in the kinase reaction, while MAP2K1 was at 100 μM. Samples are mixed and the kinase reaction is incubated 1 hour at room temperature, after which 5 μl of development solution is added and mixed. After incubation for another 1 hour at room temperature, 5 μl of stop reagent is added to each sample and mixed. The fluorescence signals are measured to determine the emission ratio.

Flt4 = molecular target: T18, Flt4 (Homo sapiens, UniProt P35916); assay: AlphaScreen kinase assay, Flt4; settings: read-out: IC50, activity toward kinase Flt4
T18 construct: purchased ProQinase GmbH (Freiburg, Germany)
Summary of the method: as §1

Src = molecular target: T19, Src (Homo sapiens, UniProt P12931); assay: AlphaScreen kinase assay, Src; settings: read-out: IC50, activity toward kinase Src
T19 construct: P1144. pET-N6 BI-PTP SRC V86-L536-X; made in house

Measured: IC50

T13 sequence (P10721 with tags, fused parts or gaps): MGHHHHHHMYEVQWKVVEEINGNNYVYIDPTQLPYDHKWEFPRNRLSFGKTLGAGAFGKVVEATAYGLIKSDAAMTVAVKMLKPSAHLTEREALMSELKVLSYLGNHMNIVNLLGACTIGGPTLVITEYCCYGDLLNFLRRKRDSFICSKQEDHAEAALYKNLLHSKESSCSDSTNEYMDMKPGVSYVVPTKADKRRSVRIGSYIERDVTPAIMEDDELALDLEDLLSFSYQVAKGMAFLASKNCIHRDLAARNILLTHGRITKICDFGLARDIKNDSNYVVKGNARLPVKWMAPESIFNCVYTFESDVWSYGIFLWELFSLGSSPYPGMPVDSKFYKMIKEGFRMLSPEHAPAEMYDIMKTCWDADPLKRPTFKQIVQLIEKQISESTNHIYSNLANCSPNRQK
T10 sequence (P45984 whole entry): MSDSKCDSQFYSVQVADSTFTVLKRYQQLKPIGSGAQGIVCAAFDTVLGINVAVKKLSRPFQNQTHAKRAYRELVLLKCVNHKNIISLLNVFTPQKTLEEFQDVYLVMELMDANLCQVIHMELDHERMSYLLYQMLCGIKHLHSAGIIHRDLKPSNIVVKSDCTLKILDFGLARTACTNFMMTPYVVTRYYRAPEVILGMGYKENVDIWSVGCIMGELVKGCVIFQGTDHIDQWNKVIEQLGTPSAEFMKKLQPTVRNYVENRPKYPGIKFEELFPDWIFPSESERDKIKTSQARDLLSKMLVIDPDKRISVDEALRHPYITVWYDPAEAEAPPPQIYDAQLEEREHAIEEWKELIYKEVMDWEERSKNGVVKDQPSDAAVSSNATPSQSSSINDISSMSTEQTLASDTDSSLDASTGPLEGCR
T11 sequence (P53779 whole entry): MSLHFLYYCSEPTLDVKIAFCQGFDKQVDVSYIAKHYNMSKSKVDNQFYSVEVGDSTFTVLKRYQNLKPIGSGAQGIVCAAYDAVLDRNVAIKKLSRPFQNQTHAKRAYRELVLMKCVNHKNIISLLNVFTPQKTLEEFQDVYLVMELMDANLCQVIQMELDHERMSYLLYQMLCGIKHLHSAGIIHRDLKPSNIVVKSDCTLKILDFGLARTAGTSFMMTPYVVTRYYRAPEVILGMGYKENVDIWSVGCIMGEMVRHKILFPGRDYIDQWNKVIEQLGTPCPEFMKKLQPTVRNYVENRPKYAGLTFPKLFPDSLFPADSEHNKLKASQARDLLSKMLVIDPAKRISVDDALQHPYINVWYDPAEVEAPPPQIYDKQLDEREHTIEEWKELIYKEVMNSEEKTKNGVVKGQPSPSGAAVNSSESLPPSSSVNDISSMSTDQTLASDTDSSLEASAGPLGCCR
T2 sequence (P15056 whole entry): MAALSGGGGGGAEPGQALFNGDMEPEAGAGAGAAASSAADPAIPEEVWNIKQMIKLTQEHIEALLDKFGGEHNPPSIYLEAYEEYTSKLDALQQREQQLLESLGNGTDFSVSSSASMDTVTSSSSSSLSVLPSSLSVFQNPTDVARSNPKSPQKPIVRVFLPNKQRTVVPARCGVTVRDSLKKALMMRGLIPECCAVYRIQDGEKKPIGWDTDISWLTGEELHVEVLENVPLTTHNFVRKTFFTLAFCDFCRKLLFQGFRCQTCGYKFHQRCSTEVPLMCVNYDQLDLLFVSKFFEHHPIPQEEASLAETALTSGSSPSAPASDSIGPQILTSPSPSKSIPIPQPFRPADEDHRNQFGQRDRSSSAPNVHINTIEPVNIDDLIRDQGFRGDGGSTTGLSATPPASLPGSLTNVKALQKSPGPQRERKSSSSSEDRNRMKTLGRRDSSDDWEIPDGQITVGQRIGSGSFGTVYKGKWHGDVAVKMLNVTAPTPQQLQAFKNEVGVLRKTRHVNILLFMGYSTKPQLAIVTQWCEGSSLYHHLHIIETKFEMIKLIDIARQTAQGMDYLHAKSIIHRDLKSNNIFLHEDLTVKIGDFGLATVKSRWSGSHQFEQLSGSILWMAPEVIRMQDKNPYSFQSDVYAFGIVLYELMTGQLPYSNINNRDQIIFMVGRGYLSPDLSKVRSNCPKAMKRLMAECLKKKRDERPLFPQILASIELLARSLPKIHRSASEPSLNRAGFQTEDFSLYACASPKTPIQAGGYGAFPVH
T6 sequence (P11362 458-765 C488A/C584S): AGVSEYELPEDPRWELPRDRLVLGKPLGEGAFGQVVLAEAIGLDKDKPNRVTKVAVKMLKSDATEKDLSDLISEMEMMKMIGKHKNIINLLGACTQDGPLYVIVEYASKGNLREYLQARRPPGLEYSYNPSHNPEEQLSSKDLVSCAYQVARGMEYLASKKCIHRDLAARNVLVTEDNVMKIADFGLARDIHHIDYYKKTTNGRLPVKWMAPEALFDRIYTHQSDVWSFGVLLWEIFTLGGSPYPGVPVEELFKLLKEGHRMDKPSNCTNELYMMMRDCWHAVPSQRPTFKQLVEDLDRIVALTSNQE
T3 sequence (P15056 with tags, fused parts or gaps V600E): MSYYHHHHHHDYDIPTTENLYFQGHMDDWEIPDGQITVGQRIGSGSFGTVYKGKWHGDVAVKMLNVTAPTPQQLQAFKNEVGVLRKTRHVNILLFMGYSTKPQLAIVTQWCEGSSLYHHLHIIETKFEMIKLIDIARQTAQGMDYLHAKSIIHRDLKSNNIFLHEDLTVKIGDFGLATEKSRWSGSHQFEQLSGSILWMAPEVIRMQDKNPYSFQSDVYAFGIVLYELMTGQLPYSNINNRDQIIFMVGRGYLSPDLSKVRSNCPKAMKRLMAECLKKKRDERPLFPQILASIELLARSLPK
T9 sequence (P45983 whole entry): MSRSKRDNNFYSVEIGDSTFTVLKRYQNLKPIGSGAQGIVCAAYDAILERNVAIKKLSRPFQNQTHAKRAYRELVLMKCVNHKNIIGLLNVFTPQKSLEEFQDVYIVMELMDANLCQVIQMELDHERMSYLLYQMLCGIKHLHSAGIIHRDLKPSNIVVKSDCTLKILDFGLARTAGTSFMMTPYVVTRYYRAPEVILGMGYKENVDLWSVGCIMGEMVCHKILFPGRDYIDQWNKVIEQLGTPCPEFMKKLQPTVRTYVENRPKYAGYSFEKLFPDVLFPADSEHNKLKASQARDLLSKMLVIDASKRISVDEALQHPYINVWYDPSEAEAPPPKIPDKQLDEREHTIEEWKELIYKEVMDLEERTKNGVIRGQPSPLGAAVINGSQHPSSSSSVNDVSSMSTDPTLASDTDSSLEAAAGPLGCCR
T18 sequence (P35916 25-1363): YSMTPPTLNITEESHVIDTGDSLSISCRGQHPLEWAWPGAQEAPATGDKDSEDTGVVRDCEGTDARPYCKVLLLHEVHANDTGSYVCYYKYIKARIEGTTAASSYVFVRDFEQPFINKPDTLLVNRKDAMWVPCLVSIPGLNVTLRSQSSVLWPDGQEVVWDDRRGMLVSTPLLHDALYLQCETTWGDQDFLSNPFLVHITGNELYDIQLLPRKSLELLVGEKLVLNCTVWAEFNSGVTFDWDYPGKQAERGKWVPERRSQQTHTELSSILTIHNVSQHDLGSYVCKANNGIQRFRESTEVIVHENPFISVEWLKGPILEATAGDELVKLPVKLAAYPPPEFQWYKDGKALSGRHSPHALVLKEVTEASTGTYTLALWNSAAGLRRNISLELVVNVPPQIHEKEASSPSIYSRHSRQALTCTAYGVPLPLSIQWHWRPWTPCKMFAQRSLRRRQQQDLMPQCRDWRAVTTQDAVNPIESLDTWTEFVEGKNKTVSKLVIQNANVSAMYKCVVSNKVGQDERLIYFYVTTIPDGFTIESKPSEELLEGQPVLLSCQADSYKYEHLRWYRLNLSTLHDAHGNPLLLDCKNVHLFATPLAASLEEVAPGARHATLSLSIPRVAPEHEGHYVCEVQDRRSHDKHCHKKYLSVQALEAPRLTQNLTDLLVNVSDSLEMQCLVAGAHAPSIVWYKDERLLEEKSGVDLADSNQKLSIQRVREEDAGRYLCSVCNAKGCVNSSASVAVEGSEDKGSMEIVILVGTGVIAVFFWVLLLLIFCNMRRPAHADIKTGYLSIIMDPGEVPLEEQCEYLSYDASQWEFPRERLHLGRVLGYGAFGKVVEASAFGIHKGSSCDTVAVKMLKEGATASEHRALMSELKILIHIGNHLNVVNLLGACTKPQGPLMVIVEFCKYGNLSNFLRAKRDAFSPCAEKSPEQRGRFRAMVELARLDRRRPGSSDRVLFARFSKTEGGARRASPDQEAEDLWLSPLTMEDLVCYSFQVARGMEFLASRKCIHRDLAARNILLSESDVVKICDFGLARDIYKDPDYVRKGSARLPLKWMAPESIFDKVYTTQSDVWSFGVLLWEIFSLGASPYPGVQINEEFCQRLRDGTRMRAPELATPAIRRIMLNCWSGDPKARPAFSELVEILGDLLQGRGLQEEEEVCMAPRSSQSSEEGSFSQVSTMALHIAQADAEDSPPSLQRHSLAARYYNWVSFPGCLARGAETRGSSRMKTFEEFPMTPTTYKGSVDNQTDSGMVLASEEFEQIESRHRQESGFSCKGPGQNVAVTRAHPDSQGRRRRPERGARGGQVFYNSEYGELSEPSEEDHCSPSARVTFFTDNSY
T19 sequence (P12931 with tags, fused parts or gaps): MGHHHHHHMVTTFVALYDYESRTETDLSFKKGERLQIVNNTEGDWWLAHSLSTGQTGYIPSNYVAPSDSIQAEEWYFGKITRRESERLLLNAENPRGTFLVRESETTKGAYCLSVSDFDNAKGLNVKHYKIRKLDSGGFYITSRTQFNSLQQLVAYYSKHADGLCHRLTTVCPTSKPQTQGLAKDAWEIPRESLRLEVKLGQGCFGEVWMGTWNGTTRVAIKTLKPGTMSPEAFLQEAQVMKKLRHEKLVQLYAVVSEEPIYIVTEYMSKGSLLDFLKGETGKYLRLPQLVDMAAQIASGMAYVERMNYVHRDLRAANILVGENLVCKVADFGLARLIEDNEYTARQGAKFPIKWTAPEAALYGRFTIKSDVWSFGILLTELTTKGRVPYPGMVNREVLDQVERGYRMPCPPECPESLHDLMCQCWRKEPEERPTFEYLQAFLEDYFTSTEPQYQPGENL

COc1cccc(C(=O)c2c[nH]c3ncc(-c4cccc(/C=C/C(=O)O)c4)cc23)c1 [Compound P-0054]
≤ 10 µM: Abl | B-Raf | B-Raf V600E | Btk | Fak | FGFR1 | Flt1 | Fms | Jnk1 | Jnk2 | Jnk3 | Kdr | Kit | Met | Ret | Stk6 | Syk

COc1cccc(C(=O)c2c[nH]c3ncc(-c4ccc[nH]4)cc23)c1 [Compound P-0151]
≤ 10 µM: MAPKAPK2

O=C(c1cccc(O)c1)c1c[nH]c2ncc(-c3ccsc3)cc12 [Compound P-0448]
≤ 10 µM: Abl | B-Raf | B-Raf V600E | FGFR1 | Flt1 | Flt4 | Jnk1 | Jnk2 | Jnk3 | Kdr | Kit | Ret | Src | Syk

Cc1ccccc1C(=O)c1c[nH]c2ncc(-c3cccc(N)c3)cc12 [Compound P-0599]
≤ 10 µM: Abl | B-Raf | B-Raf V600E | FGFR1 | Flt4 | Jnk1 | Jnk2 | Jnk3 | Kit | Ret | Src | Syk
